These results are taken from patent US9624209B2, “Substituted phenylureas and phenylamides as vanilloid receptor ligands” (Gruenenthal GmbH, priority 2009, dated 2017).

The assay addresses T1, vanilloid receptor 1 (VR1/TRPV1 receptor) (Homo sapiens, UniProt Q8NER1).
T1 construct: expressed in transfected cells; host or cells: CHO K1 cells (ECACC), stably transfected
Put plainly: VR1/TRPV1 receptor affinity, capsaicin stimulus (human). Particulars: for Ki: Tables 8-12, read-out: (f) Ki (human being) [nM] Cap. It counts as cell-based, human being. Set-up: key to (f) Ki (human being) [nM] Cap: result in words: AG=agonist; pAG=partial agonist; NE=no effect.

Each structure is given as a SMILES string.

T1 sequence (Q8NER1 whole entry): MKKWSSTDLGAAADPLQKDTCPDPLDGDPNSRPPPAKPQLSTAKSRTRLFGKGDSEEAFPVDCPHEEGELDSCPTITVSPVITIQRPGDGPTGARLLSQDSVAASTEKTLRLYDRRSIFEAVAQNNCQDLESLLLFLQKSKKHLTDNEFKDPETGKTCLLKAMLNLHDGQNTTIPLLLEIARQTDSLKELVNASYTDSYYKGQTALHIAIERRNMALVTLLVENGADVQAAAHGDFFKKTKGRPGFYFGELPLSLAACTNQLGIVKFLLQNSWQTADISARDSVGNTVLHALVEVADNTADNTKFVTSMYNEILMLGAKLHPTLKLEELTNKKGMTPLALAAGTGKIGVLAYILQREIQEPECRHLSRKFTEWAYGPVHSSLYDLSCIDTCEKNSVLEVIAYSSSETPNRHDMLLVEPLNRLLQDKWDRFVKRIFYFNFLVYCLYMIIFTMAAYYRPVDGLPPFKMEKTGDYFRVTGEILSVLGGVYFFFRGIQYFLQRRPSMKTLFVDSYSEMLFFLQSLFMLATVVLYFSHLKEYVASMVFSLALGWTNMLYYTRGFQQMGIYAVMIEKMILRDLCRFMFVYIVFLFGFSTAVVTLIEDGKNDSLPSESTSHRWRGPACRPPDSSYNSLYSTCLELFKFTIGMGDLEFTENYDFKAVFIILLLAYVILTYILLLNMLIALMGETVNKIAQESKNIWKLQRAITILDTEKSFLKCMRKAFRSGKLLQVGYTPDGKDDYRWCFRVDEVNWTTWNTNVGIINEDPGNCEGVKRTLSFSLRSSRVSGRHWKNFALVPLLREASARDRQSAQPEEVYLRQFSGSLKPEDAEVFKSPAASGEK

Usually Ki stands for the equilibrium dissociation constant of an inhibitor or competing ligand from its target. With `CC(C)(C)c1cc(CNC(=O)Nc2ccc(CNS(C)(=O)=O)c(F)c2)n(-c2ccc(F)cc2)n1` [Example B53, 1-[[5-tert-Butyl-2-(4-fluorophenyl)-2H-pyrazol-3-yl]-methyl]-3-[3-fluoro-4-(methanesulfonamido-methyl)-phenyl]-urea], the Ki turned out to be 33 nM.
Regarding `CC(C)(C)c1cc(CNC(=O)Nc2ccc(CNS(C)(=O)=O)c(F)c2)n(-c2cccc(C(F)(F)F)c2)n1` [Example B54, 1-[[5-tert-Butyl-2-[3-(trifluoromethyl)phenyl]-2H-pyrazol-3-yl]-methyl]-3-[3-fluoro-4-(methanesulfonamido-methyl)-phenyl]-urea], the Ki was found to be 8 nM.
Same read-out and setting: next, `CS(=O)(=O)NCc1ccc(NC(=O)NCc2cc(C(F)(F)F)nn2-c2cccc(C(F)(F)F)c2)cc1F` [Example B55, 1-[3-Fluoro-4-(methanesulfonamido-methyl)-phenyl]-3-[[5-(trifluoromethyl)-2-[3-(trifluoromethyl)phenyl]-2H-pyrazol-3-yl]-methyl]-urea]: 27 nM; `CC(C)(C)c1cc(CNC(=O)Nc2ccc(CNS(N)(=O)=O)cc2)n(-c2cccc(F)c2)n1` [Example B56, 1-[[5-tert-Butyl-2-(3-fluorophenyl)-2H-pyrazol-3-yl]-methyl]-3-[4-[(sulfamoylamino)-methyl]-phenyl]-urea]: 56 nM.
On to `NS(=O)(=O)NCc1ccc(NC(=O)NCc2cc(C(F)(F)F)nn2-c2ccc(F)c(F)c2)cc1` [Example B57, 1-[[2-(3,4-Difluoro-phenyl)-5-(trifluoromethyl)-2H-pyrazol-3-yl]-methyl]-3-[4-[(sulfamoylamino)-methyl]-phenyl]-urea], for which the Ki was determined as 58 nM.
On the same count and under the same terms, for `COc1cccc(-n2nc(C(F)(F)F)cc2CNC(=O)Nc2ccc(CNS(C)(=O)=O)c(F)c2)c1` [Example B58, 1-[3-Fluoro-4-(methanesulfonamido-methyl)-phenyl]-3-[[2-(3-methoxyphenyl)-5-(trifluoromethyl)-2H-pyrazol-3-yl]-methyl]-urea] the value was 16 nM; for `CC(C)(C)c1cc(CNC(=O)Nc2ccc(CNS(N)(=O)=O)c(F)c2)n(-c2cccc(F)c2)n1` [Example B59, 1-[[5-tert-Butyl-2-(3-fluorophenyl)-2H-pyrazol-3-yl]-methyl]-3-[3-fluoro-4-[(sulfamoylamino)-methyl]-phenyl]-urea], 16 nM; for `NS(=O)(=O)NCc1ccc(NC(=O)NCc2cc(C(F)(F)F)nn2-c2cccc(F)c2)cc1F` [Example B60, 1-[[2-(3-Fluorophenyl)-5-(trifluoromethyl)-2H-pyrazol-3-yl]-methyl]-3-[3-fluoro-4-[(sulfamoylamino)-methyl]-phenyl]-urea], 25 nM.
In the case of `NS(=O)(=O)NCc1ccc(NC(=O)NCc2cc(C3CC3)nn2-c2cccc(Cl)c2)cc1F` [Example B61, 1-[[2-(3-Chlorophenyl)-5-cyclopropyl-2H-pyrazol-3-yl]-methyl]-3-[3-fluoro-4-[(sulfamoylamino)-methyl]-phenyl]-urea], the Ki was found to be 8 nM.
As to `NS(=O)(=O)NCc1ccc(NC(=O)NCc2cc(C(F)(F)F)nn2-c2ccc(F)c(F)c2)cc1F` [Example B62, 1-[[2-(3,4-Difluoro-phenyl)-5-(trifluoromethyl)-2H-pyrazol-3-yl]-methyl]-3-[3-fluoro-4-[(sulfamoylamino)-methyl]-phenyl]-urea], the Ki was 36 nM.
The same measure, in the same setting: next, `CNCc1ccc(C(C)C(=O)NCc2cc(C(C)(C)C)nn2-c2cccc(Cl)c2)cc1F` (centres unmarked) [Example B63, N-[[5-tert-Butyl-2-(3-chlorophenyl)-2H-pyrazol-3-yl]-methyl]-2-[3-fluoro-4-(methylamino-methyl)-phenyl]-propionamide]: 30 nM; `CC(C(=O)NCc1cc(C(C)(C)C)nn1-c1cccc(Cl)c1)c1ccc(CN(C)C)c(F)c1` (centres unmarked) [Example B64, N-[[5-tert-Butyl-2-(3-chlorophenyl)-2H-pyrazol-3-yl]-methyl]-2-[4-(dimethylaminomethyl)-3-fluoro-phenyl]-propionamide]: 45 nM.
As a reminder, the inhibition is the relative decrease from the control value, in per cent. With `CC(C(=O)NCc1cc(C(F)(F)F)nn1-c1cccc(Cl)c1)c1ccc(CN(C)C)c(F)c1` (centres unmarked) [Example B65, N-[[2-(3-Chlorophenyl)-5-(trifluoromethyl)-2H-pyrazol-3-yl]-methyl]-2-[4-(dimethylaminomethyl)-3-fluoro-phenyl]-propionamide], under “@ 5 μM, Tables 8-12, read-out: (f) Ki (human being) [nM] Cap: inhibition (as a percentage)”, the inhibition at 5 µM was found to be 36%.
As for `CC(=O)NCc1ccc(C(C)C(=O)NCc2cc(C(F)(F)F)nn2-c2cccc(Cl)c2)cc1F` (centres unmarked) [Example B66, 2-[4-(Acetylamino-methyl)-3-fluoro-phenyl]-N-[[2-(3-chlorophenyl)-5-(trifluoromethyl)-2H-pyrazol-3-yl]-methyl]-propionamide], the Ki came to 29 nM.
For `CC(=O)NCc1ccc(C(C)C(=O)NCc2cc(C(C)(C)C)nn2-c2cccc(Cl)c2)cc1F` (centres unmarked) [Example B67, 2-[4-(Acetylamino-methyl)-3-fluoro-phenyl]-N-[[5-tert-butyl-2-(3-chlorophenyl)-2H-pyrazol-3-yl]-methyl]-propionamide], the “(f) Ki (human being) [nM] Cap: result in words” value (Tables 8-12) is given as “AG”.
Turning to `Cc1cccc(-n2nc(C(F)(F)F)cc2CNC(=O)C(C)c2ccc(CNS(C)(=O)=O)c(F)c2)c1` (centres unmarked) [Example B68, 2-[3-Fluoro-4-(methanesulfonamido-methyl)-phenyl]-N-[[2-(m-tolyl)-5-(trifluoromethyl)-2H-pyrazol-3-yl]-methyl]-propionamide], the Ki came out at 4 nM.
Still for that read-out and setting: for `CC(C)(C)c1cc(CNC(=O)Nc2ccc(CNS(N)(=O)=O)c(F)c2)n(-c2ccc(F)c(F)c2)n1` [Example B69, 1-[[5-tert-Butyl-2-(3,4-difluoro-phenyl)-2H-pyrazol-3-yl]-methyl]-3-[3-fluoro-4-[(sulfamoylamino)-methyl]-phenyl]-urea] the value was 30 nM; for `NS(=O)(=O)NCc1ccc(NC(=O)NCc2cc(C(F)(F)F)nn2-c2ccc(F)c(Cl)c2)cc1F` [Example B70, 1-[[2-(3-Chloro-4-fluoro-phenyl)-5-(trifluoromethyl)-2H-pyrazol-3-yl]-methyl]-3-[3-fluoro-4-[(sulfamoylamino)-methyl]-phenyl]-urea], 14 nM.
Take `COc1cccc(-n2nc(C(F)(F)F)cc2CNC(=O)Nc2ccc(CNS(N)(=O)=O)c(F)c2)c1` [Example B71, 1-[3-Fluoro-4-[(sulfamoylamino)-methyl]-phenyl]-3-[[2-(3-methoxyphenyl)-5-(trifluoromethyl)-2H-pyrazol-3-yl]-methyl]-urea]: the Ki is 41 nM.
On to `CC(C)(C)c1cc(CNC(=O)Nc2ccc(CNS(C)(=O)=O)c(F)c2)n(-c2ccc(F)c(F)c2)n1` [Example B72, 1-[[5-tert-Butyl-2-(3,4-difluoro-phenyl)-2H-pyrazol-3-yl]-methyl]-3-[3-fluoro-4-(methanesulfonamido-methyl)-phenyl]-urea], for which the Ki came out at 13 nM.
Same read-out and setting: next, `CC(C)c1cccc(-n2nc(C(F)(F)F)cc2CNC(=O)Nc2ccc(CNS(C)(=O)=O)c(F)c2)c1` [Example B73, 1-[3-Fluoro-4-(methanesulfonamido-methyl)-phenyl]-3-[[2-(3-isopropyl-phenyl)-5-(trifluoromethyl)-2H-pyrazol-3-yl]-methyl]-urea]: 3 nM; `CC(C)(C)c1cc(CNC(=O)Nc2ccc(CNS(N)(=O)=O)cc2)n(-c2ccc(F)c(F)c2)n1` [Example B74, 1-[[5-tert-Butyl-2-(3,4-difluoro-phenyl)-2H-pyrazol-3-yl]-methyl]-3-[4-[(sulfamoylamino)-methyl]-phenyl]-urea]: 37 nM.
For the compound `NS(=O)(=O)NCc1ccc(NC(=O)NCc2cc(C3CC3)nn2-c2cccc(Cl)c2)cc1` [Example B75, 1-[[2-(3-Chlorophenyl)-5-cyclopropyl-2H-pyrazol-3-yl]-methyl]-3-[4-[(sulfamoylamino)-methyl]-phenyl]-urea], the Ki was found to be 19 nM.
Still for that read-out and setting: for `COc1cc(C(C)C(=O)NCc2cc(C(F)(F)F)nn2-c2cccc(Cl)c2)ccc1CNS(C)(=O)=O` (centres unmarked) [Example B76, N-[[2-(3-Chlorophenyl)-5-(trifluoromethyl)-2H-pyrazol-3-yl]-methyl]-2-[4-(methanesulfonamido-methyl)-3-methoxy-phenyl]-propionamide] the value was 12 nM.
Still for that read-out and setting: for `NS(=O)(=O)NCc1ccc(NC(=O)NCc2cc(C(F)(F)F)nn2-c2cccc(F)c2)cc1` [Example B77, 1-[[2-(3-Fluorophenyl)-5-(trifluoromethyl)-2H-pyrazol-3-yl]-methyl]-3-[4-[(sulfamoylamino)-methyl]-phenyl]-urea] the value was 44 nM.
Regarding `NS(=O)(=O)NCc1ccc(NC(=O)NCc2cc(C(F)(F)F)nn2-c2ccc(F)c(Cl)c2)cc1` [Example B78, 1-[[2-(3-Chloro-4-fluoro-phenyl)-5-(trifluoromethyl)-2H-pyrazol-3-yl]-methyl]-3-[4-[(sulfamoylamino)-methyl]-phenyl]-urea], the Ki amounted to 21 nM.
Still for that read-out and setting: for `CC(C)c1cccc(-n2nc(C(F)(F)F)cc2CNC(=O)Nc2ccc(CNS(N)(=O)=O)cc2)c1` [Example B79, 1-[[2-(3-Isopropyl-phenyl)-5-(trifluoromethyl)-2H-pyrazol-3-yl]-methyl]-3-[4-[(sulfamoylamino)-methyl]-phenyl]-urea] the value was 2 nM; for `CC(C)c1cccc(-n2nc(C(F)(F)F)cc2CNC(=O)Nc2ccc(CNS(N)(=O)=O)c(F)c2)c1` [Example B80, 1-[3-Fluoro-4-[(sulfamoylamino)-methyl]-phenyl]-3-[[2-(3-isopropyl-phenyl)-5-(trifluoromethyl)-2H-pyrazol-3-yl]-methyl]-urea], 2 nM; for `CS(=O)(=O)NCc1ccc(NC(=O)NCc2cc(C(F)(F)F)nn2-c2cccc(Cl)c2)cc1` [Example B81, 1-[[2-(3-Chlorophenyl)-5-(trifluoromethyl)-2H-pyrazol-3-yl]-methyl]-3-[4-(methanesulfonamido-methyl)-phenyl]-urea], 33 nM.
